Data taken from patent US20170189429A1, “Treating Arrhythmia with Mitochondrial-Targeted Antioxidants” (Rhode Island Hospital, priority 2014, published 2017).

How the values were obtained:
ROS = ROS density by MitoSox dye in adult mouse cardiomyocytes treated with antimycin A; type: cell-based; conditions: MitoQ 1-2 hours pretreatment, 10 nM
Experimental: FIG. 9B is a bar graph showing that Mito Q decreased ROS that was generated by antimycin A. ROS density in adult mouse cardiomyocytes was measured using MitoSox dye. Adult mouse cardiomyocytes were isolated, and MitoQ was applied for 1-2 hours pretreatment.
(§1) In addition to MitoTEMP and NAD^+, another mitochondrial-targeted antioxidant, MitoQ, was tested. […] is an antibiotic that induces apoptosis and inhibits the mitochondrial electron transport chain, thereby inducing oxidative stress and generating reactive oxygen species. Because antimycin A is known to generate ROS (for example, increasing superoxide formation), it decreases the sodium channel current (INa). Additionally, antiomycin A causes damage to mitochondrial DNA, lipids, and proteins in cells treated with the antibiotic. MitoSOX Red is a fluorescent mitochondrial probe used to measure ROS production. Mitochondrial ROS production in response to increased antimycin A levels was monitored by MitoSox Red with SCNSA cells and myocytes (FIGS. 9A and 9B).
Isolated adult mouse cardiomyocytes were pretreated with MitoQ.

[1] = test system: sodium channel current (INa); experiment: Patch clamp peak INa in adult mouse cardiomyocytes treated with antimycin A; type: cell-based
Experimental: FIG. 9A is a bar graph showing that MitoQ restored INa that was decreased by antimycin A. The peak INa at −30 mV in adult mouse cardiomyocytes was decreased in antimycin A (5-10 μM) compared with SCNSA alone. Treatment using MitoQ at 10 nM with a 1-2 hour preincubation time restored INa. The SCNSA group is the untreated group. For patch clamp, MitoQ and antimycin A were also applied to the patch clamp bath solution during the entire time of patching, respectively or together. INa was measured at room temperature. Data shown in FIGS. 9A and 9B were obtained from 3 different mice, and 16-28 cells were used on average in each group.
as §1, with “MitoSOX Red is a fluorescent mitochondrial probe used to measure ROS production.” left out, “9B). […]” for “9B).”

[2] = Echocardiography 2 and 4 weeks following MI; type: in vivo, mouse; conditions: MI mice
Experimental: (§2) The following materials and methods were used to generate the data described herein. MI was induced in 12-week old C57BL/6 mice by coronary artery occlusion. Sham-operated mice were used as controls. Two weeks following surgery, MI mice were either given a mitochondria-targeted antioxidant, mitoTEMPO (0.7 mg/kg/day, intraperitoneally), or left untreated for two weeks. Cardiomyocytes isolated from the scar border of MI mice or from the left ventricular (LV) anterior wall of sham-operated mice were utilized for whole-cell patch clamp recording of Na^+currents (INa) and for measurements of mitochondrial reactive oxygen species (mitoROS) using flow cytometry. Nav1.5 protein expression levels were determined in the LV from MI and sham-operated mice. Echocardiography was performed 2- and 4-weeks following MI. Oxidized nicotinamide adenine dinculeotide used for experiments was purchased from Sigma-Aldrich, catalog number N1636 “β-Nicotinamide adenine dinucleotide hydrate, ≧99%, Synonyms: NAD^+, β-DPN, β-NAD, Coenzyme 1, Cozymase, DPN, Diphosphopyridine nucleotide, NAD, Nadide” and dissolved in water. MitoQ was used at 10 nM.

Connexin 43 = Connexin 43 protein level expression in heart tissue of MI mice; type: in vivo, mouse
Text: FIG. 5A is a blot showing Connexin 43 protein level expressions and Glyceraldehyde 3-phosphate dehydrogenase (GAPDH) protein level expressions in heart tissue of Sham, MI mice and MI mice treated with mitoTEMPO (MI tx MT).
FIG. 5B is a bar graph showing Connexin 43/GAPDH protein expression in Sham, MI mice and MI mice treated with mitoTEMPO (MI tx MT).
MI was induced in 12-week old C57BL/6 mice by coronary artery occlusion. Sham-operated mice were used as controls. Two weeks after surgery, MI mice were either given a mitochondria-targeted antioxidant, mitoTEMPO (0.7 mg/kg/day, intraperitoneally), or left untreated for two weeks (Rutledge C A et al. J Am Coll Cardiol 2014; 63:928-934).

[3] = test system: SCN5A: sodium channel, voltage gated type V alpha subunit; experiment: INa in SCN5A cells treated with NADH; type: cell-based
Experimental: FIG. 1A is a graph showing a series of sodium current traces measuring a INa reduction induced by NADH (nicotinamide adenine dinucleotide) (SCN5A+100 μM [NADH]) compared to normal INa (SCN5A), which can be restored by mitoTEMPO (SCN5A+100 μM [NADH]+5 μM [mitoTEMPO]). SCN5A: sodium channel, voltage gated type V alpha subunit
FIG. 1B is a bar graph showing INa reduction induced by NADH (SCN5A+100 μM [NADH]) compared to normal INa (SCN5A), which can be restored by mitoTEMPO (SCN5A+100 μM [NADH]+5 μM [mitoTEMPO]), which is also compared to mitoTEMPO (5 μM [mitoTEMPO]).
The SCNSA group is the untreated cells group, and the others were treated with 100 μmol/L NADH in the absence or presence of NAD from 50 to 1000 μmol/L.
The SCN5A group is the untreated cells group, and the others were treated with 100 μmol/L NADH in the absence or presence of NAD from 50 to 1000 μmol/L.

[4] = test system: cardiac Na+ channel (Nav1.5); experiment: Whole-cell patch clamp recording of Na+ currents (INa) in cardiomyocytes isolated from MI mice treated with antioxidant; type: in vivo, mouse
Experimental: as §2
MI was induced in 12-week old C57BL/6 mice by coronary artery occlusion. Sham-operated mice were used as controls. […]
Whole cell INa were measured using the whole-cell patch clamp technique in voltage-clamp mode at room temperature.

[5] = test system: mitochondrial reactive oxygen species (mitoROS); experiment: mitoROS by flow cytometry (MitoSOX Red) in cardiomyocytes of treated MI mice; type: in vivo, mouse
Experimental: The following materials and methods were used to generate the data described herein. MI was induced in 12-week old C57BL/6 mice by coronary artery occlusion. Sham-operated mice were used as controls. Two weeks following surgery, MI mice were either given a mitochondria-targeted antioxidant, mitoTEMPO (0.7 mg/kg/day, intraperitoneally), or left untreated for two weeks. Cardiomyocytes isolated from the scar border of MI mice or from the left ventricular (LV) anterior wall of sham-operated mice were utilized for whole-cell patch clamp recording of Na^+currents (INa) and for measurements of mitochondrial reactive oxygen species (mitoROS) using flow cytometry. Nav1.5 protein expression levels were determined in the LV from MI and sham-operated mice. Echocardiography was performed 2- and 4-weeks following MI. […]
A BD LSR II (BD Biosciences) flow cytometer was used for high-throughput evaluation of mitoROS, mitochondrial volume, and cell survival. […] Separate suspensions were stained with propidium iodide (10 μg/mL) and evaluated at 617 nm to measure for cell integrity. Five thousand gated cells were recorded in each sample. […]

cardiac INa = experiment: Peak INa of DOCA mouse cardiomyocytes treated with NAD+; type: cell-based; conditions: 500 μmol/L
Text: NAD^+ restored INa decreased by mitoROS in PL-treated cells and in DOCA myocytes.

mitochondrial ROS [6] = experiment: Mitochondrial ROS by MitoSox Red confocal microscopy in PL-treated cells and DOCA myocytes; type: cell-based, mouse
Experimental: FIG. 6A is a photo showing representative confocal microscopy images of myocytes of 3 groups. Scale bar, 10 μm. Mitochondrial ROS production in response to intracellular NADH was monitored by MitoSox Red with SCNSA cells and myocytes. The control groups were untreated, the pyruvate and lactate (PL) groups were treated with 1 and 10 mmol/L PL buffer, respectively, for 10 minutes, and the NAD-PL groups were incubated with 500 μmol/L NAD^+ for ˜6 hours and then treated with PL buffer for 10 minutes.
FIG. 6C is a photo showing that mitochondrial ROS levels were increased in DOCA (deoxycorticosterone) myopathic mice and reduced by NAD treatment (500 μmol/L). Representative confocal microscopy images of mitochondrial ROS levels were obtained with treatment of myocytes monitored with MitoTracker Green and MitoSox Red. The white scale bar is 20 μm. […]
Mitochondrial ROS production in response to intracellular NADH was monitored by MitoSox Red with SCNSA cells and myocytes (FIGS. 6A and 6B). […]
Mitochondrial ROS levels were increased in DOCA myopathic mice and reduced by NAD^+ treatment (500 μmol/L) (FIG. 6C. Representative confocal microscopy images of mitochondrial ROS levels were obtained with treatment of myocytes monitored with MitoTracker Green and MitoSox Red. The white scale bar is 20 μm. The extremely red cells are dying myocytes that have very high levels of ROS.

INa = INa in cardiomyopathy of DOCA mice injected with NAD; type: in vivo, mouse; conditions: injection 100 mg/kg
Experimental: Reduced INa in cardiomyopathy of DOCA was corrected by injection of NAD (100 mg/kg), which had no effect on the sham group (FIG. 8B).

mitochondrial ROS [7] = experiment: Mitochondrial ROS by flow cytometry in DOCA mice injected with NAD+; type: in vivo, mouse; conditions: 100 mg/kg injected in the neck, P>0.05
Experimental: Three to four animals and ˜10,000 myocytes from each animal were tested in each group in flow cytometry (FIG. 8A).

[8] = rodents treated 0.7 mg/kg/day intraperitoneally after ischemic insult

For `COC1=C(OC)C(=O)C(CCCCCCCCCC[P+](c2ccccc2)(c2ccccc2)c2ccccc2)=C(C)C1=O` [MitoQ, 10-(6′-Ubiquinolyl)decylthriphenylphosphonium bromide], the “ROS (MitoSOX density) generated by antimycin A” value (ROS) was “elevated MitoSOX density”, the “ROS (MitoSOX density) generated by antimycin A” value (ROS; listed as Mito Q) was “decreased ROS” and the “INa decreased by antimycin A, effect of antioxidant” value ([1]; 10 nM, 1-2 hour preincubation, antimycin A 5-10 μM, peak INa at −30 mV, room temperature) was “restored INa”.
With `CC1(C)CC(NC(=O)C[P+](c2ccccc2)(c2ccccc2)c2ccccc2)CC(C)(C)N1[O]` [mitoTEMPO, (2-(2,2,6,6-Tetramethylpiperidin-1-oxyl-4-ylamino)-2-oxoethyl)triphenylphosphonium chloride monohydrate] the “echocardiography parameters, untreated vs treated groups” value [2] was “no significant differences”, the “effect on connexin 43 downregulation in MI” value (Connexin 43; MI mice) was “no effect” and the “Connexin 43 level, of sham levels” value (Connexin 43; treated MI mice, untreated MI 56%, P<0.01 vs sham, ns vs MI) was 41%. The “INa reduced by NADH, effect of antioxidant” value ([3]; SCN5A + 100 μM NADH + 5 μM mitoTEMPO) was “restored”, the “peak INa density” value ([4]; MI mice, 0.7 mg/kg/day intraperitoneally for two weeks, isolated LV cardiomyocytes, sham −24.0±1.8, untreated MI −14.3±1.4) was −19.4±0.8 pA/pF and the “INa activity, effect in words” value [4, 8] was “statistically significant increase”. For the same compound, the mitoROS level ([5]; MI mice, 0.7 mg/kg/day intraperitoneally for two weeks, scar border cardiomyocytes, untreated MI 1.5±0.2 fold) was 1.2±0.2 fold and the “mitochondrial ROS, effect in words” value [5, 8] was “statistically significant decrease”.
With `NC(=O)c1ccc[n+]([C@@H]2O[C@H](COP(=O)([O-])OP(=O)(O)OC[C@H]3O[C@@H](n4cnc5c(N)ncnc54)[C@H](O)[C@@H]3O)[C@@H](O)[C@H]2O)c1` [NAD^+, β-Nicotinamide adenine dinucleotide hydrate] the “peak INa of DOCA mouse cardiomyocytes” value (cardiac INa) was “restored INa to the sham level”, the “mitochondrial ROS levels in DOCA myopathic mice myocytes” value (mitochondrial ROS [6]; 500 μmol/L) was “reduced” and the “MitoROS level increased by PL” value (mitochondrial ROS [6]; 500 μmol/L NAD+ for ~6 hours, then PL buffer 10 minutes) was “Decreased”. The “inhibition of NADH on cardiac INa, effect of extracellular NAD” value ([3]; 100 μmol/L NADH, NAD from 50 to 1000 μmol/L) was “reversed the inhibition of NADH on cardiac INa in a dose-dependent manner”, the “reduced INa in cardiomyopathy of DOCA” value (INa; DOCA mice) was “corrected” and the “INa, effect on the sham group” value (INa; sham mice) was “no effect”. The “mitochondrial ROS” value (mitochondrial ROS [7]) was 1.1±0.1 fold of sham.
In the case of antimycin A, the “peak INa at −30 mV, effect of antimycin A” value ([1]; 5-10 μM, compared with SCN5A alone (untreated)) is reported as “decreased”.
